Key:
Assay type in all cases: cell-based, rat
PTEN [1] = test: Western blotting of nuclear fractions from cultured neurons: PTEN nuclear translocation; settings: NMDA stimulation
Procedure: (§1) Dissociated cultures of rat cortical or hippocampal neurons were prepared from 18-d-old Sprague Dawley rat embryos as described previously (Mielke and Wang 2005). To obtain mixed cultures enriched with neurons, uridine (10 μM) and 5-Fluor-T-deoxyuridine (10 μM) were added to the culture medium at 3 d in vitro (DIV) and maintained for 48 h to inhibit non-neuronal cell proliferation before the cultures were returned to the normal culture medium. Mature neurons (12-14 DIV) were used for experiments.
In order to induce excitotoxicity, 12-14 DIV cultured neurons were washed and transferred to Mg2+-free extracellular solution (ECS) containing the following (in mM): 25 HEPES acid, 140 NaCl, 33 glucose, 5.4 KCl, and 1.3 CaCl2, with pH 7.35 and osmolarity 320-330 mOsm. […]
For western blotting, 10 μg of the nuclear extract or 40 μg of total cell lysate (solubilized by 1% SDS, 1 mM EGTA, 1 mM EDTA, 1 mM DTT, 2 mM sodium orthovanadate, and protease inhibitors cocktail in PBS) from each treatment condition was separated with SDS-PAGE, transferred onto a polyvinylidene difluoride (PVDF) membrane, and probed with the relevant antibodies. […] Band intensities were quantified using NIH ImageJ™ software and normalized to the quantity of a nuclear marker or β-tubulin in each sample lane.

PTEN [2] = test: Immunostaining of endogenous PTEN: nuclear translocation in cultured neurons with NMDA; settings: peptide 10 uM, NMDA stimulation
Procedure: as §1
(§2) In order to induce excitotoxicity, 12-14 DIV cultured neurons were washed and transferred to Mg2+-free extracellular solution (ECS) containing the following (in mM): 25 HEPES acid, 140 NaCl, 33 glucose, 5.4 KCl, and 1.3 CaCl2, with pH 7.35 and osmolarity 320-330 mOsm. ECS and subjected to NMDA-induced excitotoxicity (20 μM NMDA, 10 μM glycine, 60 min at room temperature) or any other experimental conditions as indicated in the texts. Cells were then washed twice with normal ECS, and returned to the original growth conditions until additional assay.

nuclear PIP3 = test: Level of nuclear PIP3 after NMDA treatment
Procedure: as §1, §2
Nuclear extracts were isolated from control and NMDA-treated cell cultures (10^8 cells) using the Panomics™ nuclear extraction kit (Panomics™; catalog number AY2002) as recommended by the manufacturer.

[3] = test system: cultured hippocampal neurons; test: Neuronal death by LDH assay, NMDA excitotoxicity; settings: NMDA 20 uM, 1 hour
Procedure: as §1, with “experiments. […]” for “experiments.”
(§3) Necrotic neuronal death was quantified by measuring lactate dehydrogenase (LDH) release 20 h after treatments using a Cyto Tox™ 96 assay kit (Promega™, Madison, Wis.). Absorbance readings were measured using a spectrophotometric microplate reader. Apoptotic neuronal death was determined by visualizing the nucleus condensation and fragmentation of neurons stained with Hoechst-33342™. Images were taken with a Leica DMIRE2™ fluorescence microscope. […] These observations were quantified by double-blind counting of apoptotic and total neurons in each visual field and expressed as percentage apoptosis. […] Data are expressed as the difference in apoptosis relative to control and are expressed as a percentage.

[4] = test system: cultured hippocampal neurons; test: Neuronal death by nuclei staining (Hoechst 33342), NMDA excitotoxicity; settings: NMDA 20 uM, 1 hour
Procedure: as §1, with “experiments. […]” for “experiments.”
as §3

| Molecule | PTEN nuclear translocation (western blotting of nuclear fractions) (PTEN [1]) | PTEN nuclear translocation (endogenous PTEN immunostaining) (PTEN [2]) | level of nuclear PIP3 (nuclear PIP3) | cell death, LDH assay [3] | cell death, nuclei staining [4] |
| --- | --- | --- | --- | --- | --- |
| YGRKKRRQRRR-PEETSEKVENGS (YGRKKRRQRRRPEETSEKVENGS; PTEN K289 interference peptide conjugated to TAT protein transduction domain) [Peptide-K289, TAT protein transduction domain fused to PTEN K289 interference peptide; control for Peptide-K13] | failed to do so | failed to do so |  |  |  |
| CN[C@H](CC(=O)O)C(=O)O [NMDA, N-methyl-D-asparate] |  |  | reduced the level of nuclear PIP3 | significant cell death | significant cell death |

Reference: patent US9127079B2, “Inhibitors of phosphatase and tensin homolog (PTEN) conjugates” (THE UNIVERSITY OF BRITISH COLUMBIA, priority 2009, dated 2015)
